Legend:
[1] = molecular target: Cannabinoid receptor 2 (Homo sapiens, UniProt P34972); experiment: (§1) cAMP Assay : Cells plated the day prior to the assay in clear bottom plates were viewed on an inverse microscope to ensure confluency in the range of 60-75%. The following mixtures and buffer solutions were prepared: (a) Buffer 1: HBSS (Mediatech Cat#21-023-CV) with 5 mM HEPES ([…], Gibco BRL Cat#15630-056) and 0.1% BSA (7.5% stock, Invitrogen Cat#15260-037); (b) Buffer 2: 0.5 mM IBMX (200 mM stock in DMSO, Sigma 15879) in Buffer 1; (c) 1 μM cAMP Standard (50 μM stock, Perkin Elmer Cat# AD0262) diluted in Buffer 2 and serially diluted in Buffer 2, 12 doses @ ½ dilutions resulting in a dose range of 1 μM to 0.5 nM; (d) d2 labelled cAMP (CisBio HTRF Detection Kit Cat #62AM4PEB reconstituted with 6 mL d-H2O) diluted 1/20 with lysis buffer (CisBio HTRF Detection Kit Cat #62AM4PEB); (e) anti-cAMP (CisBio HTRF Detection Kit Cat # 62AM4PEB reconstituted with 5 mL d-H2O) diluted 1/20 with lysis buffer (CisBio HTRF Detection Kit Cat #62AM4PEB); and (f) Forskolin (Sigma Cat# F6886, 10 mM in DMSO) diluted first in DMSO to 1 mM and then to 1.5 μM in Buffer 2.
[2] = molecular target: Cannabinoid receptor 1 (Homo sapiens, UniProt P21554); experiment: as §1
Cannabinoid receptor 1, sequence (P21554 whole entry): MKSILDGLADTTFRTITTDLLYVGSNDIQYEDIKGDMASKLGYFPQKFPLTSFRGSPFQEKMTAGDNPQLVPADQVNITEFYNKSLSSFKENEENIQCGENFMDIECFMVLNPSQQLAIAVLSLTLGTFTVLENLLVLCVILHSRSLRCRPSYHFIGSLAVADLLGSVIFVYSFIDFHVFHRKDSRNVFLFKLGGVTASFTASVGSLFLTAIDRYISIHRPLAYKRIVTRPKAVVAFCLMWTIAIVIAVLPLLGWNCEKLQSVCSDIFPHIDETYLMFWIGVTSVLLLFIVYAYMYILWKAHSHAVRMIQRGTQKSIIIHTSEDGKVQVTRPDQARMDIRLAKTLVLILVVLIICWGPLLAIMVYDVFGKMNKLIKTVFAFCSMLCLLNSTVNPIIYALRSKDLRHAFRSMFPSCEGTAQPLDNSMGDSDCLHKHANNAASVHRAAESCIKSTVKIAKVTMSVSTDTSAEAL

Cannabinoid receptor 2, sequence (P34972 whole entry): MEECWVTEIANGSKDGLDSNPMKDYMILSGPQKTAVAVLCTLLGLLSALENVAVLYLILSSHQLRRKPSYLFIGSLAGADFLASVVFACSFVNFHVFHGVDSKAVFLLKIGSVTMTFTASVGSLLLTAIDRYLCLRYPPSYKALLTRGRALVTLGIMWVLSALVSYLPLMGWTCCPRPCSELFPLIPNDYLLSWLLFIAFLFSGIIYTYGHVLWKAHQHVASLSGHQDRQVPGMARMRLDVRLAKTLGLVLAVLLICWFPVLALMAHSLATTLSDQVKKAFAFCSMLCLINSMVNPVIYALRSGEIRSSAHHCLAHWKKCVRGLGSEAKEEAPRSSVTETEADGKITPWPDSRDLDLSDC

Row | EC50 [1] | EC50 [2] | Structure (SMILES)
1 | 7400 nM | 56 nM | COCCOCCOCCOCCOc1cc(NC2CCN(S(=O)(=O)C(F)(F)F)CC2)c2cc(C(c3ccc(Cl)cc3)c3ccc(Cl)cc3)ccc2n1
2 | 1260 nM | 33 nM | NNC(=O)CCOCCOCCOCCOCCOCCOCCOCCOCCOCCNC(=O)CCCCCOc1cc(NC2CCN(S(=O)(=O)C(F)(F)F)CC2)c2cc(C(c3ccc(Cl)cc3)c3ccc(Cl)cc3)ccc2n1
3 | 1900 nM | 68 nM | O=S(=O)(N1CCC(Nc2ccnc3c(OCCOCCOCCOCCOCCOCCOCCOCCOCCOCCO)cc(C(c4ccc(Cl)cc4)c4ccc(Cl)cc4)cc23)CC1)C(F)(F)F
4 | 5510 nM | 350 nM | COCCOCCOCCOCCn1c(=O)c(N2CCN(c3ccccc3)CC2)cc2cc(C(c3ccc(Cl)cc3)c3ccc(Cl)cc3)ccc21

Continued, compound first:

Row | Structure (SMILES) | EC50 [1] | EC50 [2]
5 | COCCOCCOCCOCCOCCOCCOCCOc1cc(NC2CCN(S(=O)(=O)C(F)(F)F)CC2)c2cc(C(c3ccc(Cl)cc3)c3ccc(Cl)cc3)ccc2n1 | 5570 nM | 480 nM
6 | NCCOCCOCCOCCOCCOCCOCCOCCOCCOCCOCCOCCOc1cc(NC2CCN(S(=O)(=O)C(F)(F)F)CC2)c2cc(C(c3ccc(Cl)cc3)c3ccc(Cl)cc3)ccc2n1 | 4300 nM | 36 nM
7 | CC(C)(C)OC(=O)NCCOCCOCCOCCOCCOCCOCCOCCOCCOCCOCCOCCOc1cc(NC2CCN(S(=O)(=O)C(F)(F)F)CC2)c2cc(C(c3ccc(Cl)cc3)c3ccc(Cl)cc3)ccc2n1 | > 10000 nM | 1800 nM
8 | COCCOCCOCCOCCOCCOCCOCCn1c(=O)cc(NC2CCN(S(=O)(=O)C(F)(F)F)CC2)c2cc(C(c3ccc(Cl)cc3)c3ccc(Cl)cc3)ccc21 | > 10000 nM | 4910 nM
9 | CC(C)(C)OC(=O)CCOCCOCCOCCOCCOCCOCCOCCOCCOCCOCCOCCOCCOc1cc(C(c2ccc(Cl)cc2)c2ccc(Cl)cc2)cc2c(NC3CCN(S(=O)(=O)C(F)(F)F)CC3)ccnc12 | 2250 nM | 460 nM

From ChEMBL document CHEMBL5726588, “Chemically modified quinoline and quinolone derivatives useful as CB-1 inverse agonists” (2017)
